Experimental data: article PMC12298624, “Anti-Infective Properties, Cytotoxicity, and In Silico ADME Parameters of Novel 4′-(Piperazin-1-yl)benzanilides” (Pharmaceuticals, 2025)
Like-named read-outs stand apart in the source and are kept apart here.

Tests used:
B. subtilis 168a = experiment: MIC/MBC microbroth dilution (EUCAST); type: cell-based, Bacillus subtilis
Protocol: (§1) Minimum inhibitory concentrations (MIC values) were obtained using the microbroth dilution method as stated in the EUCAST guidelines. Tests were conducted on cation adjusted Mueller–Hinton broth (caMHB) or agar (caMHA). These were prepared and stored following the manufacturer’s guidelines. Biological organisms were prepared via growth on either Luria–Bertani (LB) or cation adjusted Mueller–Hinton agar plates. These were grown for 24 h at 37 °C, except for Micrococcus luteus where MICs took longer to grow and as a consequence were read after 48 h once a clear positive control could be observed. For the MIC experiment, the bacteria were prepared using the McFarland 0.5 standard and diluted 1 in 100 or 1 in 10 in caMHB following EUCAST and CSLI guidelines for the preparation of bacteria. Testing of the compounds using the microbroth dilution method took place in 96-well plates. Serial 2-fold dilutions of compounds in caMHB covering a range from 256 µg/mL to 0.25 µg/mL were prepared. Bacteria preparations (McFarland) were added to the compound dilutions, further halving the compound concentrations. The plate was then incubated for 18 h at 37 °C. Controls for the MIC experiments included a bacterial growth (positive) control of bacteria and caMHB only and a media only (negative) control. After incubation, the plates were read, whereby the positive control of bacteria was visible and the negative control was clear of contamination. The last clear well, where there is no growth of bacteria, was counted as the MIC value. […] The lowest concentration without any bacterial growth was counted as the MBC value. The following pathogens were used: Pseudomonas aeruginosa NCTC 13437, Escherichia coli NCTC 13353, Bacillus subtilis 168a, Serratia marcescens NCTC 9940, Micrococcus luteus ATCC 10240, Staphylococcus aureus JE2 USA 300, Acinetobacter baumannii ATCC 19606, and Klebsiella pneumoniae ATCC 700603. A concentration range of 256 µg/mL to 0.25 µg/mL of a combination of ciprofloxacin and meropenem against E. coli 25922 was used as an antibiotic control to ensure correct dilution and performance of the assay.

[1] = Resazurin-based in vitro cytotoxicity with L-6 cells; type: cell-based, rat; conditions: rat
Protocol: Serial drug dilutions of eleven 3-fold dilution steps covering a range from 100 to 0.002 µg/mL were prepared. After 70 h of incubation, the plates were inspected under an inverted microscope to assure growth of the controls and sterile conditions. […] The plates were read with a Spectramax Gemini XS microplate fluorometer (Molecular Devices Cooperation, Sunnyvale, CA, USA) using an excitation wavelength of 536 nm and an emission wavelength of 588 nm. IC50 values were calculated by linear regression from the sigmoidal dose–inhibition curves using SoftmaxPro software Version 8.2.1 (Molecular Devices Cooperation, Sunnyvale, CA, USA). Podophyllotoxin (Sigma P4405) was used as control.

A. baumannii ATCC 19606 = experiment: MIC/MBC microbroth dilution (EUCAST); type: cell-based, Acinetobacter baumannii; conditions: for MBC: ATCC19606
Protocol: as §1

M. luteus ATCC 10240 = experiment: MIC/MBC microbroth dilution (EUCAST); type: cell-based, Micrococcus luteus
Protocol: as §1

[2] = Parallel artificial membrane permeability assay (PAMPA); conditions: PAMPA, PBS pH 7.4, 200 µM, 5 h, room temperature; for Papp at 5 h, 200 µM: pH 7.4, Pe
Protocol: With the high-throughput PAMPA the newly synthesized compounds were tested for their passive permeability through cell membranes without the influence of efflux pumps or transporter proteins. The assay was performed using a Corning® Gentest^TM Precoated PAMPA Plate System (Corning, Glendale, AZ, USA) with 96-well polystyrene plates. The bottom of the acceptor plate consists of a porous membrane, whereby the pores are lined with a lipid–oil–lipid triple layer. Stock solutions of each test compound at 10 mM were prepared in DMSO or methanol and diluted with phosphate-buffered saline (PBS at a pH of 7.4) to a final concentration of 200 µM. […] The donor plate (bottom plate) was filled with the compound solutions, whereby all compounds were tested in quadruplicates. Each well of the acceptor plate (top plate) was filled with PBS buffer. Donor and acceptor plates were combined and incubated at room temperature for 5 h. After that, the plates were separated and 150 µL of each well of both plates were transferred to 96-well UV plates (Greiner Bio-One). Absorption at different wavelengths covering a range from 200 to 300 nm was measured using a SpectraMax M3 UV plate reader. […] The plates were analyzed at the wavelength where the R2 value of the calibration curve was higher than 0.99 [47].
Recovery of compounds from donor and acceptor wells (mass retention) was calculated as shown in the equation below. Data were only accepted when recovery exceeded 70%. The equation is as follows:(3) R=1−[cDt×VD+cAt×VA]/(c0×VD) where

P. falciparum NF54 = experiment: In vitro microplate assay against P. falciparum NF54 (3H-hypoxanthine incorporation); type: cell-based, Plasmodium falciparum; conditions: read-out: P.f.NF54 IC50
Protocol: Serial drug dilutions of eleven 3-fold dilution steps covering a range from 100 to 0.002 µg/mL were prepared. […] After 48 h of incubation time, 0.05 mL of ^3H-hypoxanthine (=0.5 µCi) was added to each well of the plate. The plates were incubated for a further 24 h under the same conditions. Plates were then harvested using a BetaplateTM cell harvester (Wallac, Zurich, Switzerland). Red blood cells were transferred onto a glass fiber filter and then washed with distilled aqua demin. The dried filters were inserted into a plastic foil with 10 mL of scintillation fluid and counted in a BetaplateTM liquid scintillation counter (Wallac, Zurich, Switzerland). IC50 values were calculated from sigmoidal inhibition curves by linear regression using Microsoft Excel. […] Louis, MO, USA) was used as control.

E. coli NCTC 13353 = experiment: MIC/MBC microbroth dilution (EUCAST); type: cell-based, Escherichia coli; conditions: for MBC: NCTC13353
Protocol: as §1

S. aureus JE2 USA 300 = experiment: MIC/MBC microbroth dilution (EUCAST); type: cell-based; conditions: Staphylococcus aureus, USA300, S. aureus JE2 USA 300
Protocol: as §1

[3] = system: K. pneumoniae ATCC 700603; experiment: MIC/MBC microbroth dilution (EUCAST); type: cell-based; conditions: Klebsiella pneumoniae, ATCC700603
Protocol: as §1

P. aeruginosa NCTC 13437 = experiment: MIC/MBC microbroth dilution (EUCAST); type: cell-based; conditions: Pseudomonas aeruginosa, NCTC13437
Protocol: as §1

S. marcescens NCTC 9940 = experiment: MIC/MBC microbroth dilution (EUCAST); type: cell-based; conditions: Serratia marcescens, NCTC9940
Protocol: as §1

[4] = Resazurin-based in vitro cytotoxicity with HepG2 cells; type: cell-based, human; conditions: HepG2 cells; human hepatocarcinoma cells, 48 h
Protocol: The HepG2 cells were washed with DPBS (Dulbecco’s PBS without calcium and magnesium, Gibco, Cat #21600-044) and trypsinized with trypsin solution in DPBS. Trypsinization was stopped by adding culture medium, and after being stained with Trypan Blue (SORS Ukraine) cells were counted using a counting chamber (Hausser Scientific, Cat #3500). The cell suspension was placed in a falcon tube containing plating medium DMEM/High glucose with 1% fetal bovine serum, 100 units/mL penicillin, and 100 µg/mL streptomycin. Cells at a density of 250,000 cells/mL were seeded in sterile 384-well plates (Greiner Bio-One, Cat #781091) in a volume of […] and incubated at 37 °C and 5% CO2. Serial dilutions of ten 3-fold dilution steps of test and reference compounds covering a range from 100.0 to 0.005 µM were added to the wells, followed by incubation at 37 °C and 5% CO2 for 48 h. Then, resazurin (50 µM final concentration) was added and plates were incubated for another 3 h. The plates were read with a SpectraMax microplate reader (Molecular Devices Cooperation, Sunnyvale, CA, USA)) using an extinction wavelength of 555 nm and an emission wavelength of 570 nm. IC50 values were calculated using GraphPad Prism 9.0 charting software. Doxorubicin (Sigma Aldrich D1515) was used as control.

[5] = Bacillus subtilis, 168A, read-out: MIC
[6] = Acinetobacter baumannii, ATCC19606, read-out: MIC
[7] = Micrococcus luteus, ATCC10240, M. luteus ATCC 10240, read-out: MBC
[8] = Micrococcus luteus, ATCC10240, M. luteus ATCC 10240, read-out: MIC
[9] = Plasmodium falciparum, NF54, chloroquine-sensitive strain NF54, erythrocytic stages
[10] = Escherichia coli, NCTC13353, read-out: MIC

Compound	MBC (B. subtilis 168a; Bacillus subtilis, 168A) [µg/mL]	MIC (B. subtilis 168a; [5]) [µg/mL]	IC50 at 70 h [1] [µM]	MBC (A. baumannii ATCC 19606; Acinetobacter baumannii) [µg/mL]	MIC (A. baumannii ATCC 19606; [6]) [µg/mL]	MBC (M. luteus ATCC 10240; [7]) [µg/mL]	MIC (M. luteus ATCC 10240; [8]) [µg/mL]	Papp at 5 h, 200 µM [2] [×10⁻⁶ cm/s]	IC50 (P. falciparum NF54; [9]) [µM]	MBC (E. coli NCTC 13353; Escherichia coli) [µg/mL]	MIC (E. coli NCTC 13353; [10]) [µg/mL]	MBC (S. aureus JE2 USA 300) [µg/mL]	MIC (S. aureus JE2 USA 300) [µg/mL]	MBC [3] [µg/mL]	MIC [3] [µg/mL]	MBC (P. aeruginosa NCTC 13437) [µg/mL]	MIC (P. aeruginosa NCTC 13437) [µg/mL]	MBC (S. marcescens NCTC 9940) [µg/mL]	MIC (S. marcescens NCTC 9940) [µg/mL]	IC50 at 48 h [4] [µM]	further results
CN1CCN(C(=O)c2cccc(C(F)(F)F)c2Oc2ccc(F)cc2)CC1 [Compound 49, [2-(4-Fluorophenoxy)-3-(trifluoromethyl)phenyl](4-methylpiperazin-1-yl)methanon]	> 256	256	137	> 256	256	256	256	8.5	55.2	> 256	256	> 256	> 256	> 256	> 256	> 256	256	> 256	> 256	> 100	–
O=C(c1cccc(C(F)(F)F)c1Oc1ccc(F)cc1)N1CCOCC1 [Compound 51, [2-(4-Fluorophenoxy)-3-(trifluoromethyl)phenyl](morpholin-4-yl)methanon]	> 256	256	154	256	256	128	256	10.4	81.1	> 256	> 256	> 256	> 256	> 256	> 256	> 256	> 256	> 256	> 256	> 100	–
O=C(c1cccc(C(F)(F)F)c1Oc1ccc(F)cc1)N1CCNCC1 [Compound 52, [2-(4-Fluorophenoxy)-3-(trifluoromethyl)phenyl](piperazin-1-yl)methanon]	> 256	> 256	136	> 256	256	256	256	8.35	23.2	> 256	> 256	> 256	> 256	> 256	> 256	> 256	> 256	> 256	> 256	> 100	–
O=C(Nc1ccccc1N1CCNCC1)c1cccc(C(F)(F)F)c1Sc1ccc(F)cc1 [Compound 55, 2-[(4-Fluorophenyl)sulfanyl]-N-[2-(piperazin-1-yl)phenyl]-3-(trifluoromethyl)benz-amide]	–	16 to 64	7.06	64	32 to 64	16 to 64	16 to 64	4.41	0.692	64	32 to 64	–	–	> 256	> 256	> 256	256	> 256	256	4.6	MIC (B. subtilis 168a): 32 µg/mL; MIC (A. baumannii ATCC 19606): 32 µg/mL; MBC (M. luteus ATCC 10240; M. luteus ATCC 10240): 16 µg/mL; MIC (M. luteus ATCC 10240; M. luteus ATCC 10240): 16 µg/mL; Pe [2]: 6.51 10^−6 cm/s; IC50 (P. falciparum NF54; chloroquine-sensitive strain NF54, erythrocytic stages): 0.69 µM; MIC (E. coli NCTC 13353): 64 µg/mL
